Reference: patent US6387945B2, “Lipoic acid analogs” (The Regents of the University of California, priority 2000, dated 2002)

Columns and labels:
HT4 neuronal cells = experiment: Cells' ability to retain the reduced forms (DTNB efflux assay), HT4 neuronal cells; assay type: cell-based, mouse; details: 0.1 mM LA or LA-PLUS, FIG. 6B
Description: (§1) Jurkat T cells or neuronal HT4 cells were incubated with LA (0.1 mM) or LA-PLUS (0.1 mM). The medium of the cells was replaced by phosphate buffer saline that contained 250 uM of 5,5′-dithiobis-(2-nitrobenzoic acid) (DTNB). The free thiols in the medium were trapped by the DTNB and absorption was measured at 420 nm at different time intervals.
(§2) The efflux of DHLA and DHLA-PLUS from cells was measured in the medium of cells in culture. The medium was composed of PBS and DTNB. […] An illustration of how LA-PLUS crosses biological barriers such as membranes (also showing retention of DHLA-PLUS inside the cell) is given in FIG. 7.

Jurkat T cells = experiment: Cells' ability to retain the reduced forms (DTNB efflux assay), Jurkat T cells; assay type: cell-based; details: 0.1 mM LA or LA-PLUS, FIG. 6A
Description: as §1, §2

HT4 cells [1] = experiment: Cell viability by LDH leakage after glutamate treatment; assay type: cell-based, mouse; details: 10 mM glutamate, FIG. 2
Description: (§3) HT-4 cells (mouse hippocampal cell line) were purchased from American Type Culture Collection (ATCC, Bethesda, Md.). All experiments reported here were carried out with 10 mM glutamate.
(§4) HT4 cells were grown in DMEM supplemented with 10% serum and 100 U/ml penicillin-streptomycin at 37° C. in a humidified atmosphere containing 95% air/5% CO2.
(§5) All experiments were performed under the following protocol. Cells were allowed to grow to confluency, were trypsinized and subcultured in culture dishes at a concentration of 375,000 cells per millititer. The cells were continually cultured at 37° C. and were allowed to grow for 24 h, and then were exposed to glutamate treatment.
Cell viability was assayed using lactate dehydrogenase (LDH) leakage. After completion of the experiments, culture medium was removed from plates and centrifuged (500 g×5 min). The cells that detached from the monolayer following glutamate treatment were separated by centrifugation of the growth medium. […] LDH activity was measured from the samples spectophotometrically within two days of storage. Cell viability was determined using the following formula: viability=attached cell LDH activity/total LDH activity (medium+detached cell LDH activity+attached cell LDH activity).

ICAM-1 = experiment: PMA-induced ICAM-1 expression in ECV endothelial cells (flow cytometry); assay type: cell-based, human; details: same concentration; 20 nM PMA, 24 h; FIG. 3
Description: EV304 (ECV), a spontaneously transformed immortal human endothelial cell line established from the vein of an apparently normal human umbilical cord, were obtained from ATCC (Bethesda, Md.). ECV cells were grown in medium 199 supplemented with 10% fetal calf serum, 100 U/ml penicillin and 100 μg/ml streptomycin. Cells were maintained in a standard culture incubator with humidified air containing 5% CO2 at 37° C. ECV monolayers were pretreated with LA or LA-PLUS for the time period indicated in the respective figure legend. Following the pretreatment, cells were activated using 20 nM PMA for 24 h. […] Appropriate isotypic controls were used for background fluorescence in the ICAM-1 assay. The fluorescence and light scattering properties (forward scatter, FS; side scatter, SS) of the cells were determined by using an EPICS-Elite (Coulter, Miami, Fla.) flow cytometer. Cells with FITC-conjugated antibodies were excited using a 488 nm argon ion laser and emission of FTIC was recorded at 525 nm. […] A logarithmic scale was used to measure both background and endothelial cell fluorescence. Background fluorescence was then subtracted from endothelial cell fluorescence, allowing linear comparisons of ICAM-1 expression between various samples.

HT4 cells [2] = experiment: Flow cytometric assay of fragmented DNA (glutamate-induced apoptosis); assay type: cell-based, mouse; details: 10 mM glutamate, 24 h, FIG. 1
Description: as §3, §4, §5
HT4 cells were exposed to 10 mM glutamate for 24 h with and without antioxidants. […] The permeablized cells were kept in the dark for 6 h at 4° C. and their DNA integrity was analyzed using a flow cytometer (XL, Coulter, FL) with argon-ion laser (excitation 488 nm) and the 575 nm emission was recorded in fluorescence channel 1 (FL1). […]
The pathway of cell death was explored by staining the cells for 6 h following the glutamate treatment with a DNA-binding fluorescent dye, propidum iodide (PI) in cells permeabilised with a low concentration of detergent (Triton X-100 0.1% w/v). […] The cells were analyzed by flow cytometry.

L6 myoblasts = experiment: Glucose uptake by L6 rat muscle derived cells; assay type: cell-based; details: 1 h pretreatment; FIG. 4
Description: L6 cells were obtained from American Type Culture Collection (MD). Dulbecco's Phosphate Buffered Saline (DPBS) and Dulbecco's Modified Eagle Medium (DMEM) supplemented with high glucose, L-glutamine, pyridoxine hydrochloride and 110 mg/l sodium pyruvate were obtained from GIBCO BRL (Life Technologies NY). Fetal calf serum (FCS) and other reagents for the culture medium were obtained from the cell culture facility of the University of California-San Francisco. Undifferentiated mononucleated cells (myoblasts) were used in this study. For experiments, cells were seeded at a concentration of 0.2×10^6 cells per well in 6-well flat bottom tissue culture treated polystyrene plates (FALCON, Becton Dickinson Labware, NJ). Cultures were grown in DMEM supplemented with 10% FCS, 5 mM glutamine, 0.3% D-glucose, 50 U/ml of penicillin, and […] of streptomycin, in humidified air containing 5% CO2 at 37° C. Cell viability was greater than 97% as estimated by trypan blue exclusion or propidium iodide staining. The cells were split once every third day. All experiments were carried out on cells (6th to 12th passage) in the third day of the last passage. Cells seeded in 6-well plates were washed thrice with 1 ml transport suffer (140 mM NaCl, 5 mM KCl, 2.5 mM MgCl2, 1 mM CaCl2 in 20 mN tris-HEPES, pH 7.4) at room temperature. […] Radioactivity in each sample was read using a scintillation counter.

In the case of O=C(O)CCCC[C@@H](S)CCS (racemic) [DHLA, dihydrolipoate], the “efflux of reduced form from cells / retention inside cells” value (HT4 neuronal cells) is reported as “effluxed from the cell faster than DHLA-PLUS” and the “efflux of reduced form from cells / retention inside cells” value (Jurkat T cells) is reported as “effluxed from the cell faster than DHLA-PLUS”.
With O=C(O)CCCCC1CCSS1 (centres unmarked) [LA, 1,2-dithiolane-3-pentanoic acid, reference compound] the “protection of HT4 cells against glutamate cytotoxicity (viability)” value (HT4 cells [1]; 100 μM compound) was “did not provide total protection”.
CN(C)CCNC(=O)CCCCC1CCSS1.Cl (centres unmarked) [LA-PLUS, N,N-Dimethyl-N-2-Amidoethyl Lipoate (HCl)] was tested, and the “down-regulation of PMA induced ICAM-1 expression compared to LA” value (ICAM-1) was “much more effectively down-regulated”, the “efficiency in protecting HT4 cells compared to lipoic acid” value (HT4 cells [1]) was “more efficient in protecting the HT4 cells than lipoic acid” and the “glutamate-induced apoptotic process (cell shrinkage, DNA fragmentation)” value (HT4 cells [2]; 50 μM compound) was “completely blocked”. The “anti-apoptotic effect compared to LA” value (HT4 cells [2]) was “much more pronounced compared to the effect of LA” and the “enhancement of glucose uptake compared to LA” value (L6 myoblasts) was “clearly more effective than LA”.
